Test results: the RepoRT retention time repository

Assay: RP, Waters ACQUITY UPLC BEH C18, 150 × 2.1 mm, 1.7 µm, 40 °C, 0.4 mL/min, estimated dead time 0.83 min; A: water + 0.1% formic acid, pH 3; B: acetonitrile; gradient (min/%B) 0/2 1.5/8 3.5/14 6/16 8/25 9.2/98 10.5/2 12/2
Settings: stereoisomer not certain

Row | LC retention time [min] | SMILES
1 | 4.56 | COc1cc(C=CC(=O)OCC2OC(Oc3cc(O)c4c(=O)cc(-c5cc(OC)c(O)c(OC)c5)oc4c3)C(O)C(O)C2O)cc(OC)c1O (stereo not drawn) [sinapoyl-tricin 7-O-glucoside]
2 | 5.62 | O=c1cc(-c2ccc(O)cc2)oc2cc(O)c(C3OC(CO)C(O)C(O)C3OC3OCC(O)C(O)C3O)c(O)c12 (stereo not drawn) [isovitexin 2''-O-arabinoside]
3 | 4.52 | NC(N)=NCCCCNC(=O)C=Cc1ccc2c(c1)C(C(=O)NCCCCN=C(N)N)C(c1ccc(O)cc1)O2 (stereo not drawn) [hordatine A]
4 | 4.61 | O=c1cc(-c2ccc(O)cc2)oc2cc(OC3OC(CO)C(O)C(O)C3O)c(C3OC(CO)C(O)C(O)C3O)c(O)c12 (stereo not drawn) [isovitexin 7-O-glucoside (saponarin)]
5 | 4.81 | CC1OC(OC2C(Oc3cc4oc(-c5ccc(O)cc5)cc(=O)c4c(O)c3C3OC(CO)C(O)C(O)C3O)OC(CO)C(O)C2O)C(O)C(O)C1O (stereo not drawn) [isovitexin 7-O-rhamnosylglucoside]
6 | 8.42 | COc1cc(-c2cc(=O)c3c(O)cc(OC4OC(COC5OC(CO)C(O)C(O)C5O)C(O)C(O)C4O)cc3o2)ccc1O (stereo not drawn) [chrysoeriol 7-O-diglucoside]
7 | 9.65 | COc1cc(-c2cc(=O)c3c(O)c(C4OC(CO)C(O)C(O)C4OC4OCC(OC(=O)C=Cc5cc(OC)c(O)c(OC)c5)C(O)C4O)c(O)cc3o2)ccc1O (stereo not drawn) [sinapoyl-isoscoparin 2''-O-arabinoside]
8 | 4.93 | O=c1cc(-c2ccc(O)cc2)oc2c(C3OCC(O)C(O)C3O)c(O)c(C3OC(CO)C(O)C(O)C3O)c(O)c12 (stereo not drawn) [apigenin 6-C-glucoside-8-C-arabinoside]
9 | 4.42 | COc1cc(C=CC(=O)NCCCCN=C(N)N)cc2c1OC(c1ccc(O)cc1)C2C(=O)NCCCCN=C(N)N (stereo not drawn) [hordatine B]
10 | 4.69 | CC1OC(OC2C(Oc3cc4oc(-c5ccc(O)c(O)c5)cc(=O)c4c(O)c3C3OC(CO)C(O)C(O)C3O)OC(CO)C(O)C2O)C(O)C(O)C1O (stereo not drawn) [isoorientin 7-O-rhamnosylglucoside]
11 | 4.87 | O=c1cc(-c2ccc(O)c(O)c2)oc2c(C3OC(CO)C(O)C(O)C3O)c(O)c(C3OCC(O)C(O)C3O)c(O)c12 (stereo not drawn) [luteolin 6-C-arabinoside 8-C-glucoside]
12 | 7.62 | COc1cc(-c2cc(=O)c3c(O)c(C4OC(CO)C(O)C(O)C4O)c(OC4OC(COC(=O)C=Cc5cc(OC)c(O)c(OC)c5)C(O)C(O)C4O)cc3o2)ccc1O (stereo not drawn) [isoscoparin 7-O-[6''-sinapoyl]-glucoside]
13 | 10.6 | COc1cc(-c2cc(=O)c3c(O)cc(OC4OC(COC(=O)C=Cc5ccc(O)cc5)C(O)C(O)C4O)cc3o2)ccc1O (stereo not drawn) [chrysoeriol 7-O-[6''-coumaroyl]-glucoside]
14 | 7.88 | COc1cc(C=CC(=O)OCC2OC(OC3C(c4c(O)cc5oc(-c6ccc(O)cc6)cc(=O)c5c4O)OC(CO)C(O)C3O)C(O)C(O)C2O)ccc1O (stereo not drawn) [feruloyl-isovitexin 2''-O-glucoside]
15 | 6.23 | COc1cc(C=CC(=O)OCC2OC(Oc3cc4oc(-c5ccc(O)c(O)c5)cc(=O)c4c(O)c3C3OC(CO)C(O)C(O)C3O)C(O)C(O)C2O)ccc1O (stereo not drawn) [isoorientin 7-O-[6''-feruloyl]-glucoside]
16 | 5.25 | O=c1cc(-c2ccc(O)cc2)oc2c(C3OC(CO)C(O)C(O)C3O)c(O)c(C3OC(CO)C(O)C(O)C3O)c(O)c12 (stereo not drawn) [isovitexin 8-C-glucoside]
17 | 6.97 | COc1cc(-c2cc(=O)c3c(O)c(C4OC(CO)C(O)C(O)C4OC4OCC(O)C(O)C4O)c(O)cc3o2)ccc1O (stereo not drawn) [isoscoparin 2''-O-arabinoside]
18 | 9.32 | COc1cc(C=CC(=O)OC2COC(OC3C(c4c(O)cc5oc(-c6ccc(O)cc6)cc(=O)c5c4O)OC(CO)C(O)C3O)C(O)C2O)cc(OC)c1O (stereo not drawn) [sinapoyl-isovitexin 2''-O-arabinoside]
